# Biological target: T1, PmGBE57 (Petrotoga mobilis, UniProt A9BH92)
# T1 construct: gene Pmob_0588; full-length codon-optimized gene in pET28a(+), C-terminal His-tag, expressed in E. coli BL21(DE3), Ni-NTA purified
# T1 sequence (A9BH92 1-538): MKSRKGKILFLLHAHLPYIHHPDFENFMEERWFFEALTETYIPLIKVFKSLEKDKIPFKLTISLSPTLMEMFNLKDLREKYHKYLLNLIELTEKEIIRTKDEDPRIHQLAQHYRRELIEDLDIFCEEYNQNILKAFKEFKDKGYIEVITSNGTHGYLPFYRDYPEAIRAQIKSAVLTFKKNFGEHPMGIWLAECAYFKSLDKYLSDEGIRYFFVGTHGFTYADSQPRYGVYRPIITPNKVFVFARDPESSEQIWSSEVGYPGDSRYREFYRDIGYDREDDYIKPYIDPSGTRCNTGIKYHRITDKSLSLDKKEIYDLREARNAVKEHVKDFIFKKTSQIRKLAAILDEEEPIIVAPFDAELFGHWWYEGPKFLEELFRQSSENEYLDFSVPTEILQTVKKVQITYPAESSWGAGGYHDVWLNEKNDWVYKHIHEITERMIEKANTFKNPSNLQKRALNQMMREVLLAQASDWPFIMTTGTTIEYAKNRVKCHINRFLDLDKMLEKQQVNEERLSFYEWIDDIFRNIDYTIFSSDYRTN
# Assay: HPAEC-PAD chain length analysis after […] h
# Assay type: biochemical
# Conditions: 1 U^B/g substrate, hydrolysis only, reagent also contains DP6
structure (smiles),measurement,value
"OC[C@H]1O[C@H](O[C@H]2[C@H](O)[C@@H](O)[C@@H](O[C@H]3[C@H](O)[C@@H](O)[C@@H](O[C@H]4[C@H](O)[C@@H](O)[C@@H](O[C@H]5[C@H](O)[C@@H](O)[C@@H](O[C@H]6[C@H](O)[C@@H](O)[C@@H](O[C@H]7[C@H](O)[C@@H](O)C(O)O[C@@H]7CO)O[C@@H]6CO)O[C@@H]5CO)O[C@@H]4CO)O[C@@H]3CO)O[C@@H]2CO)[C@H](O)[C@@H](O)[C@@H]1O (stereo partly shown) [MD7, maltoheptaose]",HPAEC-PAD chain length analysis after 24 h,PmGBE57 showed the ability to utilize the short DP7 chains

# Reference: article PMC10708623, “The Synergistic Effect of GH13 and GH57 GBEs of Petrotoga mobilis Results in α-Glucan Molecules with a Higher Branch Density” (Polymers, 2023)
